In one assay the target is T1, EGFR mutant T790M (Homo sapiens, UniProt P00533, T790M).
T1 construct: truncated human JAK3, EGFR mutants such as del E746-A750; purchased Carna Biosciences
Description: Kinase inhibition assay, EGFR mutant T790M.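 Further: truncated human EGFR mutant enzyme preincubated two hours with compound, then ATP plus ULight-PolyGT peptide for one hour, Europium-labeled antibody LANCE detection, IC50.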 Particulars: biochemical potency.

The target in assay [1] is T2, EGFR mutant Del19 (E746-A750) (Homo sapiens, UniProt P00533, DEL746-750).
T2 construct: truncated human JAK3, EGFR mutants such as del E746-A750; purchased Carna Biosciences
Nature of the assay: Kinase inhibition assay, EGFR del E746-A750.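 Further: truncated human EGFR mutant kinase, two-hour preincubation with compound, then one-hour reaction with ATP and ULight-PolyGT peptide, LANCE Europium-antibody phosphorylation readout, IC50.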 The assay is classed as biochemical. The note with it: read-out: EGFR mutants Del19 (E746-A750).

The target of a further assay is T3, EGFR mutant L858R (Homo sapiens, UniProt P00533, L858R).
T3 construct: truncated human JAK3, EGFR mutants such as del E746-A750; purchased Carna Biosciences
Description: Kinase inhibition assay, EGFR L858R.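 Further: truncated human EGFR L858R kinase with compound preincubation, ULight-PolyGT peptide phosphorylation read by Europium-antibody Lance detection, IC50.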 The assay is classed as biochemical. Particulars: read-out: EGFR mutants L858R.

The next assay deals with T4, EGFR mutant L858R/T790M (Homo sapiens, UniProt P00533, L858R/T790M).
T4 construct: truncated human JAK3, EGFR mutants such as del E746-A750; purchased Carna Biosciences
Nature of the assay: Kinase inhibition assay, EGFR L858R/T790M.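 Further: truncated human enzyme preincubated two hours with compound, then one hour with one millimolar ATP and ULight-PolyGT peptide, Europium-labeled antibody detection, IC50.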 The note with it: read-out: EGFR mutants L858R/T790M. The assay is classed as biochemical.

In a further assay the target is T5, EGFR mutant Del19/T790M (Homo sapiens, UniProt P00533, DEL746-750/T790M).
T5 construct: truncated human JAK3, EGFR mutants such as del E746-A750; purchased Carna Biosciences
Nature of the assay: Kinase inhibition assay, EGFR del E746-A750/T790M. The assay is classed as biochemical. The note with it: read-out: EGFR mutants Del19/T790M.

The target of a further assay is T6, SYK (Homo sapiens, UniProt P43405).
T6 construct: Purified human, full-length SYK, KDR; purchased Carna Biosciences
Description: Kinase inhibition assay, SYK.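 Further: purified full-length human SYK pre-incubated 30 min with compound, then ULight-TK peptide phosphorylation for 1 h, detected with Europium-labeled antibody in Lance buffer.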 The assay is classed as biochemical. Particulars: biochemical potency.

T2 sequence (P00533 with tags, fused parts or gaps DEL746-750 limits assumed): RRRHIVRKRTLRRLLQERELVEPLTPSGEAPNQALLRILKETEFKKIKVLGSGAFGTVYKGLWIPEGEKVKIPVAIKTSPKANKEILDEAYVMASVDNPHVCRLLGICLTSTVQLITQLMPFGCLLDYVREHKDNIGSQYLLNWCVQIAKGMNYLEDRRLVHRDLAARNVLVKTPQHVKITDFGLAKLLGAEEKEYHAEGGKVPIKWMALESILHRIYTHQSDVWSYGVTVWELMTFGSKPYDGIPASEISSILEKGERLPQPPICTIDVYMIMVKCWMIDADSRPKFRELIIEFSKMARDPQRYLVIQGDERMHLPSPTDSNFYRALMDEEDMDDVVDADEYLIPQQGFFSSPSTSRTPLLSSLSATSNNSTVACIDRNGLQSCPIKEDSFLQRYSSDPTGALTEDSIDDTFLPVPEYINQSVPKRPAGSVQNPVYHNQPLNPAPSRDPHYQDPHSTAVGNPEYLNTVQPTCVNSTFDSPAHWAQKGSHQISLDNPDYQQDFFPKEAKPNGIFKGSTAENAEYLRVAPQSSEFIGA
T5 sequence (P00533 with tags, fused parts or gaps DEL746-750/T790M limits assumed): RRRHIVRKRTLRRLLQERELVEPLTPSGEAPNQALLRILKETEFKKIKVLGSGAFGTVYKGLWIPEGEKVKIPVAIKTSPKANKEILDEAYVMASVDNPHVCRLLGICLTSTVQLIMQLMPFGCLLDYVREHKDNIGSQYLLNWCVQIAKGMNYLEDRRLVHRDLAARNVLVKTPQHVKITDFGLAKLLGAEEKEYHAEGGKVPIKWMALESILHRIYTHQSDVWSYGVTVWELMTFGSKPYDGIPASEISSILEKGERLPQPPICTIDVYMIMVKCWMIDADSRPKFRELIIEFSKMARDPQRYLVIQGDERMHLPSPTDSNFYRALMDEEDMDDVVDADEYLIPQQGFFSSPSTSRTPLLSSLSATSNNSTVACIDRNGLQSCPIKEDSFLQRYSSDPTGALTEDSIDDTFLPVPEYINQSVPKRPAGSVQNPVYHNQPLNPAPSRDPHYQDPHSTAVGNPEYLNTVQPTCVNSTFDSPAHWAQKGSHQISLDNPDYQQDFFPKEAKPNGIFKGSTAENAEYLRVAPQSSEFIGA
T1 sequence (P00533 669-1210 T790M limits assumed): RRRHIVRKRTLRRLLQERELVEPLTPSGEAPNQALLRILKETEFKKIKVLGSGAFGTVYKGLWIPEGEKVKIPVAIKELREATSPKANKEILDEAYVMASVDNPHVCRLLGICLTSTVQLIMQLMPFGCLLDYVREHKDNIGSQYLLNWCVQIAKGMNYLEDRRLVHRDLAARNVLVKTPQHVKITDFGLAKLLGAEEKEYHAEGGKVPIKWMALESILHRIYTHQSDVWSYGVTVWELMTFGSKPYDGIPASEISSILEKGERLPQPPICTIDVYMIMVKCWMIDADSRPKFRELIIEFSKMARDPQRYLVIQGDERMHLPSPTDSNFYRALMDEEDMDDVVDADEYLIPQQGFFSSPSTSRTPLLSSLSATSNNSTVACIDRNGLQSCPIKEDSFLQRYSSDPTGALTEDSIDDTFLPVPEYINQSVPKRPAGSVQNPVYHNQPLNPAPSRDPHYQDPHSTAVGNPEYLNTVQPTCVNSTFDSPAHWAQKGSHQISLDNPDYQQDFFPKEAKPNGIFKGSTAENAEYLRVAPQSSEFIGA
T4 sequence (P00533 669-1210 T790M/L858R limits assumed): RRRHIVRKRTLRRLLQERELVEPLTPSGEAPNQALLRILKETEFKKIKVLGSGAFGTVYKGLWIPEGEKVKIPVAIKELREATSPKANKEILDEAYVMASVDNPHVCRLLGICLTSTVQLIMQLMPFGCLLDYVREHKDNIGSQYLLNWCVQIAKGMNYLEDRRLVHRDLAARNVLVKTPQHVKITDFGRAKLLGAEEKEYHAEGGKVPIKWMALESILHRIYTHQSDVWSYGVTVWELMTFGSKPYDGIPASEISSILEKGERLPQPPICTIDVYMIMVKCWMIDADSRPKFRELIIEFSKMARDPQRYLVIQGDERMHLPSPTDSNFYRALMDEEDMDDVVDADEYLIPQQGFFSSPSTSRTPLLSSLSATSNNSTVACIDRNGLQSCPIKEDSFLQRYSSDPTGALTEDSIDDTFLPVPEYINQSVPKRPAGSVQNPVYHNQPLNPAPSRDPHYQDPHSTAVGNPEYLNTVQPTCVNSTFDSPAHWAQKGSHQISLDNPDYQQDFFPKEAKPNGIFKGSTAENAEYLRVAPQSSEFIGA
T3 sequence (P00533 669-1210 L858R limits assumed): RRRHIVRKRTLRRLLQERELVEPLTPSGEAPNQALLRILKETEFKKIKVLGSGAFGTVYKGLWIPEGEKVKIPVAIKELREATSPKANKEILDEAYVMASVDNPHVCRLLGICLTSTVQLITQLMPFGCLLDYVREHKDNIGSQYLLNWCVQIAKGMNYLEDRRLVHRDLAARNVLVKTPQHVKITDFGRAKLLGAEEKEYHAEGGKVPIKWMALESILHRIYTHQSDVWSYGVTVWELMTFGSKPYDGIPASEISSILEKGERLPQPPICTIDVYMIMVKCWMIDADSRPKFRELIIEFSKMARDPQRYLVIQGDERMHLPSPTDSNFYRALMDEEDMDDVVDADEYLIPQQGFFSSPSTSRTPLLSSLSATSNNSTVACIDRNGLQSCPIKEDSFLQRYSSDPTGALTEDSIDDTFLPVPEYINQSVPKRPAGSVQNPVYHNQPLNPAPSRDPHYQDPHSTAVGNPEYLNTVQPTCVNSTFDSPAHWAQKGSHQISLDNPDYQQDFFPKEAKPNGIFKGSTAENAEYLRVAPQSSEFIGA

Take `C=CC(=O)Nc1cc(Nc2nccc(-n3cc(CN4C[C@H](O)[C@H](OC)C4)c(C)n3)n2)c(OC)cc1N1CCOCC1` [Compound 45, N-(5-(4-(4-(((3S,4R)-3-hydroxy-4-methoxypyrrolidin-1-yl)methyl)-3-methyl-1H-pyrazol-1-yl)pyrimidin-2-ylamino)-4-methoxy-2-morpholinophenyl)acrylamide]: the IC50 on EGFR mutant T790M was 20 to 200 nM; in assay [1], below 20 nM; at EGFR mutant L858R it was 20 to 200 nM; at EGFR mutant L858R/T790M, below 20 nM; on EGFR mutant Del19/T790M, below 20 nM; against SYK, above 1000 nM.
Regarding `COc1cc(N2CCOCC2)c([N+](=O)[O-])cc1Nc1nccc(-n2cc(CN(C)C)c(-c3ccccc3)n2)n1` [Compound 152, 4-(4-((dimethylamino)methyl)-3-phenyl-1H-pyrazol-1-yl)-N-(2-methoxy-4-morpholino-5-nitrophenyl)pyrimidin-2-amine, reference compound], the IC50 (on EGFR mutant T790M; in assay [1]; at EGFR mutant L858R; at EGFR mutant L858R/T790M; on EGFR mutant Del19/T790M; at SYK) was above 1000 nM throughout.
Take `C=CC(=O)Nc1cc(Nc2nccc(-n3cc(CN4CCC4)c(C)n3)n2)c(OC)cc1C1=CCN(C)CC1` [Compound 59, N-(5-(4-(4-(azetidin-1-ylmethyl)-3-methyl-1H-pyrazol-1-yl)pyrimidin-2-ylamino)-4-methoxy-2-(1-methyl-1,2,3,6-tetrahydropyridin-4-yl)phenyl)acrylamide]: the IC50 is below 20 nM on EGFR mutant T790M; below 20 nM in assay [1]; below 20 nM at EGFR mutant L858R; below 20 nM at EGFR mutant L858R/T790M; below 20 nM on EGFR mutant Del19/T790M; above 1000 nM against SYK.
In the case of `C=CC(=O)Nc1cc(Nc2nccc(-n3cc(CN4CCC4)cn3)n2)c(OC)cc1N(C)C` [Compound 38, N-(5-(4-(4-(azetidin-1-ylmethyl)-1H-pyrazol-1-yl)pyrimidin-2-ylamino)-2-(dimethylamino)-4-methoxyphenyl)acrylamide], the IC50 on EGFR mutant T790M was below 20 nM; in assay [1], below 20 nM; on EGFR mutant L858R, below 20 nM; on EGFR mutant L858R/T790M, below 20 nM; at EGFR mutant Del19/T790M it was 20 to 200 nM; against SYK, above 1000 nM.
As to `C=CC(=O)Nc1cc(Nc2ncc(C)c(-n3cc(CN(C)C)c(-c4ccccc4)n3)n2)c(OC)cc1N1CCOCC1` [Compound 120, N-(5-(4-(4-((dimethylamino)methyl)-3-phenyl-1H-pyrazol-1-yl)-5-methylpyrimidin-2-ylamino)-4-methoxy-2-morpholinophenyl)acrylamide], the IC50 is below 20 nM on EGFR mutant T790M; below 20 nM in assay [1]; below 20 nM at EGFR mutant L858R; below 20 nM at EGFR mutant L858R/T790M; below 20 nM on EGFR mutant Del19/T790M; 20 to 200 nM against SYK.
Consider `C=CC(=O)Nc1cc(Nc2nccc(-n3cc(CN(C)C)c(-c4ccccc4)n3)n2)c(OC)cc1N(C)CCOC` [Compound 94], for which the IC50 against EGFR mutant T790M was below 20 nM; in assay [1], below 20 nM; on EGFR mutant L858R, below 20 nM; at EGFR mutant L858R/T790M, below 20 nM; at EGFR mutant Del19/T790M it was below 20 nM; on SYK it was above 1000 nM.
As for `C=CC(=O)Nc1cc(Nc2ncc(F)c(-n3cc(CN4CCC4)c(-c4ccoc4)c3)n2)c(OC)cc1N1CCOCC1` [Compound 130, N-(5-(4-(3-(azetidin-1-ylmethyl)-4-(furan-3-yl)-1H-pyrrol-1-yl)-5-fluoropyrimidin-2-ylamino)-4-methoxy-2-morpholinophenyl)acrylamide], the IC50 against EGFR mutant T790M was below 20 nM; in assay [1], below 20 nM; at EGFR mutant L858R it was below 20 nM; at EGFR mutant L858R/T790M it was below 20 nM; at EGFR mutant Del19/T790M, below 20 nM; on SYK, 201 to 1000 nM.

The values above are taken from patent publication USRE50528E1, “Compounds and compositions for modulating EGFR mutant kinase activities” (Yuhan Corporation, priority 2014, dated 2025).
